“And” between values parts separate entries of the source, which are not always exact repeats. Equal values may be shown once.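 Grown in 96-well plates, cells were treated for 48 hours with each compound at five concentrations. Insufficient inhibition: endpoint recorded as highest concentration tested. GI50 is the concentration that inhibits growth by half.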 The source made the active and inactive calls. Rule as the data show it: active = GI50 up to about 1.1 µM and inactive = higher.
Experiments:
Experiment in all cases: NCI anticancer screen, dose series, 48 h
HT-29 = system: HT-29
NCI-H226 = system: NCI-H226
OVCAR-8 = system: OVCAR-8
SK-MEL-5 = system: SK-MEL-5
SK-OV-3 = system: SK-OV-3
SK-MEL-28 = system: SK-MEL-28
OVCAR-5 = system: OVCAR-5
NCI/ADR-RES = system: NCI/ADR-RES
UACC-257 = system: UACC-257
LOX IMVI = system: LOX IMVI
MDA-MB-435 = system: MDA-MB-435
RPMI-8226 = system: RPMI-8226
HOP-62 = system: HOP-62
SK-MEL-2 = system: SK-MEL-2
M14 = system: M14
CAKI-1 = system: CAKI-1
SN12C = system: SN12C
COLO 205 = system: COLO 205
SNB-75 = system: SNB-75
TK-10 = system: TK-10
MDA-N = system: MDA-N
T47D = system: T47D
MOLT-4 = system: MOLT-4
HCT-15 = system: HCT-15
SF-268 = system: SF-268
PC-3 = system: PC-3
U-251 = system: U-251
CCRF-CEM = system: CCRF-CEM
HL-60 = system: HL-60
EKVX = system: EKVX
A549 = system: A549
BT-549 = system: BT-549
MCF7 = system: MCF7
HOP-92 = system: HOP-92
SNB-19 = system: SNB-19
ACHN = system: ACHN
HCT-116 = system: HCT-116
UACC-62 = system: UACC-62
MDA-MB-231 = system: MDA-MB-231
DU-145 = system: DU-145
A498 = system: A498
UO-31 = system: UO-31
NCI-H460 = system: NCI-H460
NCI-H23 = system: NCI-H23
IGROV-1 = system: IGROV-1
SW-620 = system: SW-620
SF-295 = system: SF-295
K562 = system: K562
786-0 = system: 786-0
SR = system: SR
KM12 = system: KM12
OVCAR-3 = system: OVCAR-3
SF-539 = system: SF-539
RXF 393 = system: RXF 393
Hs-578T = system: Hs-578T
NCI-H522 = system: NCI-H522
HCC 2998 = system: HCC 2998
Malme-3M = system: Malme-3M

CC(=O)OCC(OC(C)=O)C(OC(C)=O)C(/C=N\Nc1nc2ccccc2c(=O)[nH]1)OC(C)=O (configuration not stated)
GI50 (HT-29): 26.2 µM (inactive) and 41.6 µM (inactive)
GI50 (NCI-H226): > 100 µM (inactive) and 89.9 µM (inactive)
GI50 (OVCAR-8): > 100 µM (inactive)
GI50 (SK-MEL-5): > 100 µM (inactive)
GI50 (SK-OV-3): > 100 µM (inactive)
GI50 (SK-MEL-28): > 100 µM (inactive)
GI50 (OVCAR-5): > 100 µM (inactive)
GI50 (NCI/ADR-RES): 24.9 µM (inactive) and 34.5 µM (inactive)
GI50 (UACC-257): > 100 µM (inactive)
GI50 (LOX IMVI): > 100 µM (inactive)
GI50 (MDA-MB-435): > 100 µM (inactive)
GI50 (RPMI-8226): 91.8 µM (inactive)
GI50 (HOP-62): > 100 µM (inactive)
GI50 (SK-MEL-2): > 100 µM (inactive)
GI50 (M14): > 100 µM (inactive)
GI50 (CAKI-1): > 100 µM (inactive)
GI50 (SN12C): > 100 µM (inactive)
GI50 (COLO 205): > 100 µM (inactive)
GI50 (SNB-75): > 100 µM (inactive)
GI50 (TK-10): > 100 µM (inactive)
GI50 (MDA-N): > 100 µM (inactive)
GI50 (T47D): > 100 µM (inactive)
GI50 (MOLT-4): 86.9 µM (inactive)
GI50 (HCT-15): > 100 µM
GI50 (SF-268): > 100 µM (inactive)
GI50 (PC-3): > 100 µM (inactive)
GI50 (U-251): > 100 µM (inactive)
GI50 (CCRF-CEM): > 100 µM (inactive)
GI50 (HL-60): 67.9 µM (inactive) and 85.9 µM (inactive)
GI50 (EKVX): > 100 µM (inactive)
GI50 (A549): > 100 µM (inactive)
GI50 (BT-549): > 100 µM (inactive)
GI50 (MCF7): > 100 µM (inactive)
GI50 (HOP-92): > 100 µM (inactive)
GI50 (SNB-19): > 100 µM (inactive)
GI50 (ACHN): > 100 µM (inactive)
GI50 (HCT-116): > 100 µM (inactive)
GI50 (UACC-62): > 100 µM (inactive)
GI50 (MDA-MB-231): > 100 µM (inactive)
GI50 (DU-145): > 100 µM (inactive)
GI50 (A498): > 100 µM (inactive)
GI50 (UO-31): > 100 µM (inactive)
GI50 (NCI-H460): > 100 µM (inactive)
GI50 (NCI-H23): > 100 µM (inactive)
GI50 (IGROV-1): 26.1 µM (inactive) and 43.5 µM (inactive)
GI50 (SW-620): > 100 µM (inactive)
GI50 (SF-295): > 100 µM (inactive)
GI50 (K562): > 100 µM (inactive)
GI50 (786-0): > 100 µM (inactive)
GI50 (SR): > 100 µM (inactive)
GI50 (KM12): > 100 µM (inactive)
GI50 (OVCAR-3): > 100 µM (inactive)
GI50 (SF-539): > 100 µM (inactive)

CC12C(=O)OC(=O)C1(C)C1C=CC2O1 (configuration not stated)
GI50 (HT-29): > 100 µM (inactive)
GI50 (NCI-H226): 21.7 µM (inactive)
GI50 (OVCAR-8): > 100 µM (inactive)
GI50 (SK-MEL-5): 66.4 µM (inactive)
GI50 (RXF 393): 40.6 µM (inactive)
GI50 (SK-OV-3): > 100 µM (inactive)
GI50 (SK-MEL-28): > 100 µM (inactive)
GI50 (OVCAR-5): > 100 µM (inactive)
GI50 (NCI/ADR-RES): > 100 µM (inactive)
GI50 (UACC-257): > 100 µM (inactive)
GI50 (LOX IMVI): > 100 µM (inactive)
GI50 (MDA-MB-435): > 100 µM (inactive)
GI50 (RPMI-8226): > 100 µM (inactive)
GI50 (SK-MEL-2): > 100 µM (inactive)
GI50 (M14): 64.9 µM (inactive)
GI50 (CAKI-1): 54.7 µM (inactive)
GI50 (Hs-578T): 29.1 µM (inactive)
GI50 (SN12C): > 100 µM (inactive)
GI50 (COLO 205): > 100 µM (inactive)
GI50 (SNB-75): 14.9 µM (inactive)
GI50 (TK-10): 78.7 µM (inactive)
GI50 (MDA-N): > 100 µM (inactive)
GI50 (MOLT-4): > 100 µM (inactive)
GI50 (HCT-15): > 100 µM
GI50 (SF-268): 59.7 µM (inactive)
GI50 (PC-3): > 100 µM (inactive)
GI50 (U-251): > 100 µM (inactive)
GI50 (CCRF-CEM): > 100 µM (inactive)
GI50 (HL-60): > 100 µM (inactive)
GI50 (EKVX): > 100 µM (inactive)
GI50 (A549): > 100 µM (inactive)
GI50 (BT-549): > 100 µM (inactive)
GI50 (MCF7): > 100 µM (inactive)
GI50 (NCI-H522): > 100 µM (inactive)
GI50 (HCC 2998): > 100 µM (inactive)
GI50 (SNB-19): 37.8 µM (inactive)
GI50 (ACHN): > 100 µM (inactive)
GI50 (HCT-116): > 100 µM (inactive)
GI50 (UACC-62): > 100 µM (inactive)
GI50 (MDA-MB-231): 42.6 µM (inactive)
GI50 (DU-145): > 100 µM (inactive)
GI50 (A498): > 100 µM (inactive)
GI50 (UO-31): 62.1 µM (inactive)
GI50 (NCI-H460): > 100 µM (inactive)
GI50 (NCI-H23): > 100 µM (inactive)
GI50 (IGROV-1): > 100 µM (inactive)
GI50 (SW-620): > 100 µM (inactive)
GI50 (SF-295): 62.8 µM (inactive)
GI50 (K562): > 100 µM (inactive)
GI50 (786-0): > 100 µM (inactive)
GI50 (Malme-3M): 67.6 µM (inactive)
GI50 (SR): > 100 µM (inactive)
GI50 (KM12): > 100 µM (inactive)
GI50 (OVCAR-3): 30.3 µM (inactive)
GI50 (SF-539): > 100 µM (inactive)

O=P(O)(O)c1ccccc1Oc1ccccc1
GI50 (NCI-H226): > 100 µM (inactive)
GI50 (OVCAR-8): > 100 µM (inactive)
GI50 (SK-MEL-5): > 100 µM (inactive)
GI50 (RXF 393): > 100 µM (inactive)
GI50 (SK-OV-3): > 100 µM (inactive)
GI50 (SK-MEL-28): > 100 µM (inactive)
GI50 (OVCAR-5): > 100 µM (inactive)
GI50 (NCI/ADR-RES): > 100 µM (inactive)
GI50 (UACC-257): > 100 µM (inactive)
GI50 (LOX IMVI): > 100 µM (inactive)
GI50 (MDA-MB-435): > 100 µM (inactive)
GI50 (RPMI-8226): > 100 µM (inactive)
GI50 (HOP-62): > 100 µM (inactive)
GI50 (SK-MEL-2): > 100 µM (inactive)
GI50 (M14): > 100 µM (inactive)
GI50 (CAKI-1): > 100 µM (inactive)
GI50 (Hs-578T): > 100 µM (inactive)
GI50 (SN12C): > 100 µM (inactive)
GI50 (COLO 205): > 100 µM (inactive)
GI50 (SNB-75): 30.3 µM (inactive)
GI50 (TK-10): > 100 µM (inactive)
GI50 (MDA-N): > 100 µM (inactive)
GI50 (MOLT-4): > 100 µM (inactive)
GI50 (HCT-15): > 100 µM
GI50 (SF-268): > 100 µM (inactive)
GI50 (PC-3): > 100 µM (inactive)
GI50 (U-251): > 100 µM (inactive)
GI50 (CCRF-CEM): > 100 µM (inactive)
GI50 (HL-60): > 100 µM (inactive)
GI50 (EKVX): > 100 µM (inactive)
GI50 (A549): > 100 µM (inactive)
GI50 (BT-549): > 100 µM (inactive)
GI50 (MCF7): > 100 µM (inactive)
GI50 (NCI-H522): > 100 µM (inactive)
GI50 (HCC 2998): > 100 µM (inactive)
GI50 (HOP-92): > 100 µM (inactive)
GI50 (SNB-19): > 100 µM (inactive)
GI50 (ACHN): > 100 µM (inactive)
GI50 (HCT-116): > 100 µM (inactive)
GI50 (UACC-62): > 100 µM (inactive)
GI50 (MDA-MB-231): > 100 µM (inactive)
GI50 (DU-145): > 100 µM (inactive)
GI50 (A498): 3.95 µM (inactive)
GI50 (UO-31): > 100 µM (inactive)
GI50 (NCI-H460): > 100 µM (inactive)
GI50 (NCI-H23): > 100 µM (inactive)
GI50 (IGROV-1): > 100 µM (inactive)
GI50 (SW-620): > 100 µM (inactive)
GI50 (SF-295): > 100 µM (inactive)
GI50 (K562): > 100 µM (inactive)
GI50 (786-0): > 100 µM (inactive)
GI50 (KM12): > 100 µM (inactive)
GI50 (OVCAR-3): > 100 µM (inactive)
GI50 (SF-539): > 100 µM (inactive)
